Test results published in US10183021B2, “sGC stimulators” (Ironwood Pharmaceuticals, Inc., priority 2013, dated 2019).

Key:
[1] = biological target: T1, soluble guanylate cyclase (sGC) (Homo sapiens (Human), UniProt Q02108+Q02153); test: sGC-HEK-cGMP assay with SNP incubation, LC/MS detection (Example 2A); type: cell-based; settings: HEK293 cells, 10 μM SNP, LC/MS detection; for Emax: 100% = BAY 41-2272 at 10 μM, read-out: HEK assay Emax - unconstrained (%)
Summary of the method: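 HEK293 cells with endogenous sGC were pretreated 15 min at 37 °C with 0.5 mM IBMX, then exposed 10 min at 37 °C to compound (added from 0.0001–30 μM solutions) plus SNP (from 10 μM solution). After 0.1 M HCl lysis, cGMP was quantified by LC/MS against a standard curve.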

[2] = biological target: T1, soluble guanylate cyclase (sGC); test: sGC-HEK-cGMP assay, new protocol with DETA-NONOate, LC/MS detection (Example 2C); type: cell-based; settings: read-out: Absolute EC50 (uM) - binned
[3] = top of curve not fitted to 100%, read-out: HEK assay EC50 - unconstrained
[4] = top of curve fitted to 100%, read-out: HEK assay EC50 - constrained

T1 sequence (Q02153 whole entry): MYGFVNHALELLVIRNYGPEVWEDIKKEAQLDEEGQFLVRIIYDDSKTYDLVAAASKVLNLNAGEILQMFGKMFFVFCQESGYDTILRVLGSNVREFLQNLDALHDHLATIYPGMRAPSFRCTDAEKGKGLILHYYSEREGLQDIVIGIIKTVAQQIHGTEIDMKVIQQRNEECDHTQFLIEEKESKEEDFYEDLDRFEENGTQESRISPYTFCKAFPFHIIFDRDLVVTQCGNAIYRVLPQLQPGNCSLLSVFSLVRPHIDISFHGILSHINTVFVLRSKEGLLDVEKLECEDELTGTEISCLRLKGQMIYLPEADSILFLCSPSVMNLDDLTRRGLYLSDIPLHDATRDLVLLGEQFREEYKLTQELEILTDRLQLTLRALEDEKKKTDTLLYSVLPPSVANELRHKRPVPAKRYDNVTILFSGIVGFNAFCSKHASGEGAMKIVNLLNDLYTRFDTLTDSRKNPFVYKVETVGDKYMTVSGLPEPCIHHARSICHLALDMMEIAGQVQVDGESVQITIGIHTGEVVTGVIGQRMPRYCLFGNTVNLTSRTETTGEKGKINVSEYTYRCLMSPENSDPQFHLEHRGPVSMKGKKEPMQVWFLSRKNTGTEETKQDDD
T1 sequence (Q02108 whole entry): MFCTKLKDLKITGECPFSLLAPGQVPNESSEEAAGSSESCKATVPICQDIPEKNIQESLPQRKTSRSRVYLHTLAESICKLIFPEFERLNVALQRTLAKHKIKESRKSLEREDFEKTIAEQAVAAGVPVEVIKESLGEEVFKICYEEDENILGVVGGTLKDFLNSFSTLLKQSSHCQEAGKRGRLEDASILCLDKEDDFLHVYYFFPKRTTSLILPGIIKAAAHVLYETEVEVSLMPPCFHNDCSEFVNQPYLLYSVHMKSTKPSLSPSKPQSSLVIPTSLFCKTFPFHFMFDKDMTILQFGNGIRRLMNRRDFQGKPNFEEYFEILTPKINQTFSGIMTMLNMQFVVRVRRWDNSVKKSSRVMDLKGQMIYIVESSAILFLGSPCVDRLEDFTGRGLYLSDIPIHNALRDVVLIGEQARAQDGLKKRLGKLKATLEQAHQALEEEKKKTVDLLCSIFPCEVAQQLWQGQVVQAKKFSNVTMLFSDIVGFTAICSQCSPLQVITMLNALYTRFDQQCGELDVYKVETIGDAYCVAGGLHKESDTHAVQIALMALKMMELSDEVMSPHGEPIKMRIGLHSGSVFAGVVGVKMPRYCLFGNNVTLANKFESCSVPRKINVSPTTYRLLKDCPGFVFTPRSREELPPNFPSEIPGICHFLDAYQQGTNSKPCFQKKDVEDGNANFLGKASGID

Structure (SMILES) | Emax [1] | EC50 [1, 3] | EC50 [2] | EC50 [1, 4]
O=C(O)[C@H]1C[C@@H](C(F)(F)F)CCN1c1nc(-c2cc(-c3ccon3)n(Cc3ccccc3F)n2)ncc1F (racemic) [Compound I-452] | 80 to 100% | 100 to 500 nM | < 0.1 µM | 
O=C(O)[C@H]1C[C@H](C(F)(F)F)CCN1c1nc(-c2cc(-c3ccon3)n(Cc3ccccc3F)n2)ncc1F (racemic) [Compound I-453] | 0 to 10% | 1000 to 5000 nM | 0.101 to 1 µM | 
CC1CCCN1c1nc(-c2cc(-c3ccon3)n(Cc3ccccc3F)n2)ncc1F (stereo not drawn) [Compound I-11] |  |  | 0.101 to 1 µM | 500 to 1000 nM
O=[N+]([O-])c1cnc(-c2cc(-c3ccon3)n(Cc3ccccc3F)n2)nc1N1CCOCC1 [Compound I-14] |  |  | > 1 µM | > 10000 nM
COC1CCCN(c2nc(-c3cc(-c4ccon4)n(Cc4ccccc4F)n3)ncc2F)C1 (stereo not drawn) [Compound I-19] |  |  | < 0.1 µM | 1000 to 5000 nM
Fc1ccccc1Cn1nc(-c2nccc(N3CCOCC3)n2)cc1-c1ccon1 [Compound I-24] | 40 to 60% | 100 to 500 nM | < 0.1 µM | 
CC(C)(C)OC(=O)NC1CCN(c2nc(-c3cc(-c4ccon4)n(Cc4ccccc4F)n3)ncc2F)C1 (stereo not drawn) [Compound I-35] | 40 to 60% | 500 to 1000 nM | 0.101 to 1 µM | 
Fc1ccccc1Cn1nc(-c2ncc(F)c(NC3CCCNC3)n2)cc1-c1ccon1 (stereo not drawn) [Compound I-39] | 60 to 80% | 5000 to 10000 nM | 0.101 to 1 µM | 
O=C(O)C1CN(c2nc(-c3cc(-c4ccon4)n(Cc4ccccc4F)n3)ncc2F)C1 [Compound I-53] |  |  | 0.101 to 1 µM | 1000 to 5000 nM
CC1C(=O)NCCN1c1nc(-c2cc(-c3ccon3)n(Cc3ccccc3F)n2)ncc1F (stereo not drawn) [Compound I-54] |  |  | < 0.1 µM | 100 to 500 nM
O=C(O)C1CCN1c1nc(-c2cc(-c3ccon3)n(Cc3ccccc3F)n2)ncc1F (stereo not drawn) [Compound I-55] |  |  | 0.101 to 1 µM | 1000 to 5000 nM
O=C1CN(c2nc(-c3cc(-c4ccon4)n(Cc4ccccc4F)n3)ncc2F)CCN1 [Compound I-59] |  |  | 0.101 to 1 µM | > 10000 nM
CC(C)[C@H](Nc1nc(-c2cc(-c3ccon3)n(Cc3ccccc3F)n2)ncc1F)C(=O)O [Compound I-69, (S)-2-((5-fluoro-2-(1-(2-fluorobenzyl)-5-(isoxazol-3-yl)-1H-pyrazol-3-yl)pyrimidin-4-yl)amino)-3-methylbutanoic acid] | 80 to 100% | 500 to 1000 nM | 0.101 to 1 µM | 100 to 500 nM
O=C(O)[C@H](Cc1cc2ccccc2[nH]1)Nc1nc(-c2cc(-c3ccon3)n(Cc3ccccc3F)n2)ncc1F [Compound I-81] |  |  | > 1 µM | > 10000 nM
O=C(O)C1(Nc2nc(-c3cc(-c4ccon4)n(Cc4ccccc4F)n3)ncc2F)CC1 [Compound I-85] |  |  | > 1 µM | > 10000 nM
CC(C)C[C@H](Nc1nc(-c2cc(-c3ccon3)n(Cc3ccccc3F)n2)ncc1F)C(=O)O [Compound I-88] | 60 to 80% | 1000 to 5000 nM | 0.101 to 1 µM | 
O=C(O)[C@@H]1Cc2ccccc2N1c1nc(-c2cc(-c3ccon3)n(Cc3ccccc3F)n2)ncc1F [Compound I-90] | 40 to 60% | 5000 to 10000 nM | > 1 µM | 
CC(C)(C)OC(=O)N1CCN(c2nc(-c3cc(-c4ccon4)n(Cc4ccccc4F)n3)ncc2F)C(C(=O)O)C1 (stereo not drawn) [Compound I-101] |  |  | 0.101 to 1 µM | 5000 to 10000 nM
O=C(O)c1cccn1-c1nc(-c2cc(-c3ccon3)n(Cc3ccccc3F)n2)ncc1F [Compound I-104] | 20 to 40% | 1000 to 5000 nM | > 1 µM | 
O=C(O)[C@@H](Cc1cc2ccccc2[nH]1)Nc1nc(-c2cc(-c3ccon3)n(Cc3ccccc3F)n2)ncc1F [Compound I-108] |  |  | 0.101 to 1 µM | 5000 to 10000 nM
Fc1ccccc1Cn1nc(-c2ncc(F)c(N3CCc4ccccc4C3)n2)cc1-c1ccon1 [Compound I-111] |  |  | < 0.1 µM | > 10000 nM
O=C(O)[C@@]1(Nc2nc(-c3cc(-c4ccon4)n(Cc4ccccc4F)n3)ncc2F)CC2CC[C@H]1C2 [Compound I-114] | 40 to 60% | 1000 to 5000 nM | > 1 µM | 
COc1ccc2c(c1)CCN(c1nc(-c3cc(-c4ccon4)n(Cc4ccccc4F)n3)ncc1F)C2C(=O)O (stereo not drawn) [Compound I-126] |  |  | < 0.1 µM | 500 to 1000 nM
O=C(O)C1c2ccc(O)cc2CCN1c1nc(-c2cc(-c3ccon3)n(Cc3ccccc3F)n2)ncc1F (stereo not drawn) [Compound I-127] |  |  | > 1 µM | > 10000 nM
O=C(O)C1(CNc2nc(-c3cc(-c4ccon4)n(Cc4ccccc4F)n3)ncc2F)CCCC1 [Compound I-129] |  |  | < 0.1 µM | 100 to 500 nM
O=C(O)C1CNCCN1c1nc(-c2cc(-c3ccon3)n(Cc3ccccc3F)n2)ncc1F (stereo not drawn) [Compound I-133] |  |  | > 1 µM | > 10000 nM
COC(=O)N1CCN(c2nc(-c3cc(-c4ccon4)n(Cc4ccccc4F)n3)ncc2F)C(C(=O)O)C1 (stereo not drawn) [Compound I-135] |  |  | > 1 µM | > 10000 nM
O=C(O)C1(Nc2nc(-c3cc(-c4ccon4)n(Cc4ccccc4F)n3)ncc2F)CCCC1 [Compound I-138] |  |  | > 1 µM | 1000 to 5000 nM

Structure (SMILES) | Emax [1] | EC50 [1, 3] | EC50 [2] | EC50 [1, 4]
O=C(O)C1CCc2ccccc2N1c1nc(-c2cc(-c3ccon3)n(Cc3ccccc3F)n2)ncc1F (stereo not drawn) [Compound I-140] | 80 to 100% | 1000 to 5000 nM | 0.101 to 1 µM | 
O=C(O)C1c2ccccc2CN1c1nc(-c2cc(-c3ccon3)n(Cc3ccccc3F)n2)ncc1F (stereo not drawn) [Compound I-149] |  |  | > 1 µM | > 10000 nM
O=C(O)[C@H](Cc1ccc(O)cc1)Nc1nc(-c2cc(-c3ccon3)n(Cc3ccccc3F)n2)ncc1F [Compound I-159] |  |  | > 1 µM | > 10000 nM
O=C(O)C1c2[nH]cnc2CCN1c1nc(-c2cc(-c3ccon3)n(Cc3ccccc3F)n2)ncc1F (stereo not drawn) [Compound I-163] |  |  | > 1 µM | > 10000 nM
O=C(O)C1(F)CCN(c2nc(-c3cc(-c4ccon4)n(Cc4ccccc4F)n3)ncc2F)CC1 [Compound I-188] |  |  | 0.101 to 1 µM | 1000 to 5000 nM
CN(Cc1nn[nH]n1)c1nc(-c2cc(-c3ccon3)n(Cc3ccccc3F)n2)ncc1F [Compound I-191] |  |  | < 0.1 µM | > 10000 nM
CS(=O)(=O)C1CCN(c2nc(C3=NC(Cc4ccccc4F)C(c4ccon4)=C3)ncc2F)C1 (stereo not drawn) [Compound I-192] | > 120% | 1 to 100 nM | < 0.1 µM | 
O=C(O)[C@@H]1CCCC[C@H]1Nc1nc(-c2cc(-c3ccon3)n(Cc3ccccc3F)n2)ncc1F [Compound I-198] | 40 to 60% | 1 to 100 nM | < 0.1 µM | 
CC(C)N(CC(=O)O)c1nc(-c2cc(-c3ccon3)n(Cc3ccccc3F)n2)ncc1F [Compound I-204] |  |  | 0.101 to 1 µM | > 10000 nM
O=C(O)C(F)(F)CNc1nc(-c2cc(-c3ccon3)n(Cc3ccccc3F)n2)ncc1F [Compound I-206] |  |  | < 0.1 µM | > 10000 nM
CCOC(=O)CN1CCCN1c1nc(-c2cc(-c3ccon3)n(Cc3ccccc3F)n2)ncc1F [Compound I-213] | > 120% | 500 to 1000 nM | < 0.1 µM | 
O=C(O)CCCNc1nc(-c2cc(-c3ccon3)n(Cc3ccccc3F)n2)ncc1F [Compound I-214] | > 120% | 100 to 500 nM | < 0.1 µM | 
CC(C)[C@H](C(=O)O)N(C)c1nc(-c2cc(-c3ccon3)n(Cc3ccccc3F)n2)ncc1F [Compound I-219] | 20 to 40% | > 10000 nM | < 0.1 µM | 
O=C(O)CC1CCN(c2nc(-c3cc(-c4ccon4)n(Cc4ccccc4F)n3)ncc2F)CC1 [Compound I-230] | 40 to 60% | > 10000 nM | < 0.1 µM | 
CC(C)[C@@H](C(=O)O)N(C)c1nc(-c2cc(-c3ncco3)n(Cc3ccccc3F)n2)ncc1F [Compound I-236] | 100 to 120% | 100 to 500 nM | < 0.1 µM | 
CC(=O)NNC(=O)C1(C)C(=O)Nc2nc(-c3cc(-c4ccon4)n(Cc4ccccc4F)n3)nc(N)c21 (stereo not drawn) [Compound I-623] |  |  | > 1 µM | 
O=S(=O)(Nc1nc(-c2cc(-c3ccon3)n(Cc3ccccc3F)n2)ncc1F)c1ccc(F)cc1 [Compound I-624] |  |  | 0.101 to 1 µM | 
O=S(=O)(Nc1nc(-c2cc(-c3ccon3)n(Cc3ccccc3F)n2)ncc1F)c1cccnc1 [Compound I-625] |  |  | > 1 µM | 
CS(=O)(=O)CCC(Nc1nc(-c2cc(-c3ccon3)n(CCC(F)(F)F)n2)ncc1F)C(F)(F)F (stereo not drawn) [Compound I-626] |  |  | > 1 µM | 
NC(=O)C(O)(CNc1ccnc(-c2cc(-c3ccon3)n(Cc3ccccc3F)n2)n1)C(F)(F)F (stereo not drawn) [Compound I-627] |  |  | 0.101 to 1 µM | 
O=S1(=O)Cc2nc(-c3cc(-c4ccon4)n(Cc4ccccc4F)n3)nc(O)c2C1 [Compound I-628] |  |  | > 1 µM | 
CN(c1nc(-c2cc(-c3ccon3)n(Cc3ccccc3F)n2)ncc1F)S(C)(=O)=O [Compound I-629] |  |  | > 1 µM | 
COC(=O)N(C)c1cnc(-c2cc(-c3ccon3)n(Cc3ccccc3F)n2)nc1 [Compound I-630] |  |  | > 1 µM | 
Oc1n[nH]c2c1CN(c1nc(-c3cc(-c4ccon4)n(Cc4ccccc4F)n3)ncc1F)CC2 [Compound I-631] |  |  | < 0.1 µM | 
Nc1nc(-c2cc(-c3ccon3)n(Cc3ccccc3F)n2)nc2c1CS(=O)(=O)C2 [Compound I-632] |  |  | > 1 µM | 
OCC1Cn2c(nnc2C(F)(F)F)CN1c1nc(-c2cc(-c3ccon3)n(Cc3ccccc3F)n2)ncc1F (stereo not drawn) [Compound I-633] |  |  | < 0.1 µM | 
CC(O)(CNc1nc(-c2cc(-c3ccon3)n(Cc3ccccc3F)n2)ncc1F)C(F)(F)F (stereo not drawn) [Compound I-634] |  |  | < 0.1 µM | 
